PubChem BioAssay (NCI)
Where “and” joins values, the source holds several entries; their conditions need not be identical. Equal entries are not always repeated.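 Briefly, cells in 96-well plates were exposed to five compound concentrations for 48 h, and endpoints were estimated by linear interpolation. GI50 is the concentration that inhibits growth by half. TGI: total growth inhibition.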

Experiments:
Experiment in all cases: DTP human tumour cell line panel, 48 h
[1] = system: HT29 colon
[2] = system: COLO 205 colon
[3] = system: CAKI-1 renal
[4] = system: SNB-75 CNS
[5] = system: NCI-H522 lung
[6] = system: T-47D breast
[7] = system: IGROV1 ovarian
[8] = system: NCI-H23 lung
[9] = system: ACHN renal
[10] = system: BT-549 breast

SMILES	GI50 [1]	TGI [1]	GI50 [2]	TGI [2]	GI50 [3]	TGI [3]	GI50 [4]	TGI [4]	GI50 [5]	TGI [5]	GI50 [6]	TGI [6]	GI50 [7]	TGI [7]	GI50 [8]	TGI [8]	GI50 [9]	TGI [9]	GI50 [10]	TGI [10]
CC1(C)[C@@H](O[C@@H]2OC[C@@H](O[C@@H]3O[C@H](CO)[C@@H](O)[C@H](O)[C@H]3O[C@@H]3OC[C@@H](O)[C@H](O)[C@H]3O)[C@H](O)[C@H]2O[C@@H]2O[C@H](CO)[C@@H](O)[C@H](O)[C@H]2O)CC[C@]2(C)[C@H]3CC[C@]45OC[C@@]6(CC[C@](C)(C=O)C[C@H]64)[C@H](O)C[C@@]5(C)[C@]3(C)CC[C@@H]12	1.01 µM	2.06 µM	1.02 µM	2.01 µM	0.763 µM	1.45 µM	0.746 µM	1.53 µM	0.903 µM	1.83 µM	1.52 µM	5 µM	0.872 µM	1.84 µM	0.984 µM	2.12 µM	0.824 µM	1.54 µM	1.14 µM	3.37 µM
CC[C@@H](C(=O)[C@@H](C)[C@@H](O)[C@H](C)[C@@H]1O[C@@H]([C@@H](CC)C(=O)N(CC)CC)CC[C@@H]1C)C1O[C@]2(C=CC(=O)[C@]3(CC[C@@](C)([C@H]4CC[C@](O)(CC)[C@H](C)O4)O3)O2)[C@H](C)C[C@@H]1C (some centres undefined)	2.73 µM	15.6 µM	2.35 µM	5.4 µM	2.18 µM	13.5 µM	1.9 µM	17.4 µM	2.02 µM	6.46 µM	2.59 µM	9.44 µM	2.31 µM	7.71 µM	2.4 µM	6.91 µM	2.16 µM	5.19 µM	3.29 µM	61.9 µM
Cc1cc(Cl)ccc1NC(=O)c1cc2ccccc2cc1O	12.3 µM	> 100 µM	6.46 µM	30.5 µM	0.381 µM	> 100 µM	7.14 µM	> 100 µM	0.304 µM	> 29.4 µM	0.852 µM	> 26.8 µM	0.993 µM	> 100 µM	0.295 µM	> 100 µM	0.583 µM	> 100 µM	0.673 µM	> 100 µM
CCCCCCCCCCCC1CCCC(C)N1 (centres undefined)	2.59 µM	8.78 µM and 65.7 µM	1.56 µM		4.84 µM	19.5 µM and 116 µM	9.82 µM	24 µM and 151 µM	7.29 µM	19.9 µM and 96.4 µM	2.16 µM	12.8 µM	6.13 µM	19.2 µM and 142 µM	8.49 µM	23.9 µM and 133 µM	11.4 µM	25.5 µM	7.39 µM	22.6 µM
N#CSCC1CC(O)(c2ccccc2)CC(c2ccc(F)cc2)O1 (centres undefined)	1.97 µM	4.19 µM	2.02 µM	4.25 µM	2.54 µM	8.5 µM	1.44 µM	3.24 µM	1.4 µM	3.1 µM	1.78 µM	4.98 µM	3.19 µM	12 µM	2.02 µM	5.32 µM	2.1 µM	6.43 µM	1.94 µM	4.31 µM
COc1cc2c(cc1Nc1nc(Nc3ccsc3C(N)=O)c3cc[nH]c3n1)N(C(=O)CN(C)C)CCC2(C)C	< 0.0025 µM	2.53 µM	< 0.0025 µM	0.887 µM	1.37 µM	6.69 µM	2.7 µM	5.9 µM	0.764 µM	3.76 µM	3.08 µM	7.11 µM	3.23 µM	7.31 µM	0.791 µM	5.15 µM	2.56 µM	5.53 µM	2.01 µM	5.6 µM
Cc1c(COc2cc(OCc3cccc(C#N)c3)c(CN3C[C@H](O)C[C@@H]3C(=O)O)cc2Cl)cccc1-c1ccc2c(c1)OCCO2	23.2 µM	48.2 µM	20.7 µM	39.7 µM	14.5 µM	27.6 µM	13.6 µM	27 µM	19.8 µM	42.5 µM	19.8 µM	47 µM	16.3 µM	32.5 µM	16.9 µM	31 µM	17.2 µM	31 µM	7.58 µM	21.8 µM
COc1cc(O)c(C(=O)/C=C/c2ccc(O)cc2)c(O)c1[C@@H]1C[C@H](CCc2ccc(O)cc2)O[C@H](c2ccc(O)cc2)C1	3.66 µM	11.2 µM	2.72 µM	8.44 µM	13.6 µM	28.9 µM	2.59 µM	7.44 µM	2.97 µM	9.94 µM	3.12 µM	17.5 µM	2.88 µM	16.5 µM	3.14 µM	9.3 µM	3.31 µM	10.9 µM	4.36 µM	17.6 µM
